Here are results for 29 molecules from patent publication US20090111778A1, “2-Keto-Oxazoles as Modulators of Fatty Acid Amide Hydrolase” (priority 2005, published 2009).

A word on the IC50: it is the point on the concentration scale where inhibition reaches its midpoint.

For one test, the target named is T1, human FAAH (Homo sapiens, UniProt O00519).
T1 construct: expressed in transfected cells
T1 sequence (O00519 1-579): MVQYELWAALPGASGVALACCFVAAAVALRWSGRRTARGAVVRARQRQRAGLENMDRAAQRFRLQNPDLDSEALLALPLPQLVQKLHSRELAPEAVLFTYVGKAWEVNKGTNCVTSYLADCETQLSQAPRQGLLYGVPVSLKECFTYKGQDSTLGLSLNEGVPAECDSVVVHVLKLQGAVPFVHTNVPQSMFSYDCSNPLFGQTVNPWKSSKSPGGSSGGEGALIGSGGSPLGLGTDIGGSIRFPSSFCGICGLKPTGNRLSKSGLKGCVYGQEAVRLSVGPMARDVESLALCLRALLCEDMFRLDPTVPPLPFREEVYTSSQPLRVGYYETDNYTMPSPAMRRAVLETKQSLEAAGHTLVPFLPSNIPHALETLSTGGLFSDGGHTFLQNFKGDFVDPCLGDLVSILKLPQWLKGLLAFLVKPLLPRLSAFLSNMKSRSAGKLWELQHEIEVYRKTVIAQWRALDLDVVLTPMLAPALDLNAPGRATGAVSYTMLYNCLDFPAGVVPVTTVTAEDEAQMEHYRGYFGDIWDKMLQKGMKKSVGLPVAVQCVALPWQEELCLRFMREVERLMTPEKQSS
The test is described as follows: Assay Method 1: FAAH assay, hydrolysis of 3H-anandamide by homogenate of SK-N-MC cells transfected with human FAAH. The test is classed as biochemical. The note with it: human FAAH; T84 or transfected SK-N-MC cell homogenate; 3H-AEA tracer 80 nM; rt 1 h; pH 9; read-out: Assay 1 IC50. The essentials:
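Homogenate of SK-N-MC cells stably expressing human FAAH (G418-selected clones) incubated with compound and 80 nM [1-3H-ethanolamine]anandamide for 1 h at rt. Released 3H-ethanolamine separated from substrate by activated-charcoal filtration, then counted by scintillation.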

Another test deals with T2, rat FAAH (Rattus norvegicus, UniProt P97612).
T2 construct: expressed in transfected cells
T2 sequence (P97612 1-579): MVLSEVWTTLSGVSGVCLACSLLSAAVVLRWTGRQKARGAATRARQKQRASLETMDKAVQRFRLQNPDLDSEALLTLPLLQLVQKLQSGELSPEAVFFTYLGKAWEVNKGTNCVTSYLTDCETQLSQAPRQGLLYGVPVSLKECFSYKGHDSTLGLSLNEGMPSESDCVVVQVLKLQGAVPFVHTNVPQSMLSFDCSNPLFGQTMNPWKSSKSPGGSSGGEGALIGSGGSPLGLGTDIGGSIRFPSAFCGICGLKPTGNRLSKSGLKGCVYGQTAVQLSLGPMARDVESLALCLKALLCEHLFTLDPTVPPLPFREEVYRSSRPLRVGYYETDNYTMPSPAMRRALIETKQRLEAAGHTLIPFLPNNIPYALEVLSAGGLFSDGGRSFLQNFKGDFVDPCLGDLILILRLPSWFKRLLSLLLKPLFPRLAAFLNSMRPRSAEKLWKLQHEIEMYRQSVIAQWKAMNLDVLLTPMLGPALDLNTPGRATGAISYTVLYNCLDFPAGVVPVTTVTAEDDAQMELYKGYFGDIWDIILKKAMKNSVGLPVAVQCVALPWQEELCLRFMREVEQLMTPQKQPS
Nature of the test: Assay Method 2: FAAH assay, hydrolysis of 3H-anandamide by homogenate of SK-N-MC cells transfected with rat FAAH. It is filed as biochemical. The following applies: T84 or transfected SK-N-MC cell homogenate, 3H-AEA tracer 80 nM, rt 1 h, pH 9. The gist of the method: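 Rat FAAH activity from homogenate of G418-selected, electroporated SK-N-MC clones was measured as release of radiolabelled ethanolamine from 3H-anandamide. After 1 h at rt, charcoal filtration retained substrate, and scintillation counting of the flow-through gave the read-out.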

As to `CCOC(=O)N1CCC(CCCC(=O)c2ncco2)CC1` [Example 64, 4-(4-Oxazol-2-yl-4-oxo-butyl)-piperidine-1-carboxylic acid ethyl ester], the IC50 came out at 0.006 µM at human FAAH and 0.014 µM against rat FAAH.
Regarding `COc1ccc(CN2CCC(CCCC(=O)c3ncco3)CC2)cn1` [Example 74, 4-[1-(6-Methoxy-pyridin-3-ylmethyl)-piperidin-4-yl]-1-oxazol-2-yl-butan-1-one], the results for the IC50 on human FAAH and on rat FAAH were 1.3 µM and 5 µM, respectively.
In the same order, the values of `O=C(CCCC1CCN(Cc2ccc(F)c(F)c2)CC1)c1ncco1` [Example 115, 4-[1-(3,4-Difluoro-benzyl)-piperidin-4-yl]-1-oxazol-2-yl-butan-1-one] are 0.078 µM and 0.75 µM.
The matching figures for `O=C(CCCC1CCN(Cc2ccc(Oc3ccccc3)cc2)CC1)c1ncco1` [Example 15, 1-Oxazol-2-yl-4-[1-(4-phenoxy-benzyl)-piperidin-4-yl]-butan-1-one]: 0.004 µM and 0.0024 µM.
In the same order, the values of `O=C(CCCC1CCN(Cc2cc(F)cc(F)c2F)CC1)c1ncco1` [Example 124, 1-Oxazol-2-yl-4-[1-(2,3,5-trifluoro-benzyl)-piperidin-4-yl]-butan-1-one] are 0.03 µM and 0.45 µM.
As for `O=C(CCCC1CCN(Cc2ccc(N3CCCCC3)cc2)CC1)c1ncco1` [Example 103, 1-Oxazol-2-yl-4-[1-(4-piperidin-1-yl-benzyl)-piperidin-4-yl]-butan-1-one], the half-maximal inhibitory concentration (IC50) came out at 0.108 µM on human FAAH and 0.25 µM at rat FAAH.
In the case of `O=C(CCCC1CCN(Cc2ccc(Cl)nc2)CC1)c1ncco1` [Example 75, 4-[1-(6-Chloro-pyridin-3-ylmethyl)-piperidin-4-yl]-1-oxazol-2-yl-butan-1-one], the results for the IC50 at human FAAH and against rat FAAH were 0.6 µM and 1 µM, respectively.
The matching figures for `O=C(CCCC1CCN(Cc2ccc(Cl)c(C(F)(F)F)c2)CC1)c1ncco1` [Example 133, 4-[1-(4-Chloro-3-trifluoromethyl-benzyl)-piperidin-4-yl]-1-oxazol-2-yl-butan-1-one]: 0.46 µM and 2 µM.
In the same order, the values of `O=C(CCCC1CCN(Cc2ccc3ccccc3n2)CC1)c1ncco1` [Example 92, 1-Oxazol-2-yl-4-(1-quinolin-2-ylmethyl-piperidin-4-yl)-butan-1-one] are 0.06 µM and 0.29 µM.
Regarding `O=C(CCCC1CCN(Cc2ccc3c(c2)OC(F)(F)O3)CC1)c1ncco1` [Example 125, 4-[1-(2,2-Difluoro-benzo[1,3]dioxol-5-ylmethyl)-piperidin-4-yl]-1-oxazol-2-yl-butan-1-one], the IC50 is 0.004 µM on human FAAH and 0.081 µM against rat FAAH.
The matching figures for `O=C(CCCC1CCN(Cc2cccc(Br)c2)CC1)c1ncco1` [Example 90, 4-[1-(3-Bromo-benzyl)-piperidin-4-yl]-1-oxazol-2-yl-butan-1-one]: 0.01 µM and 0.118 µM.
In the same order, the values of `O=C(CCCC1CCN(Cc2ccc(F)cc2)CC1)c1ncco1` [Example 7, 4-[1-(4-Fluoro-benzyl)-piperidin-4-yl]-1-oxazol-2-yl-butan-1-one] are 0.85 µM and 1 µM.
On to `CC(C)Oc1ccc(CN2CCC(CCCC(=O)c3ncco3)CC2)cc1` [Example 23, 4-[1-(4-isopropoxy-benzyl)-piperidin-4-yl]-1-oxazol-2-yl-butan-1-one], for which the IC50 turned out to be 0.014 µM at human FAAH and 0.031 µM against rat FAAH.
In the same order, the values of `O=C(CCCC1CCN(Cc2cc3ccccc3nc2Cl)CC1)c1ncco1` [Example 97, 4-[1-(2-Chloro-quinolin-3-ylmethyl)-piperidin-4-yl]-1-oxazol-2-yl-butan-1-one] are 0.012 µM and 0.023 µM.
The matching figures for `O=C(CCCC1CCN(Cc2ccc(C3CCCCC3)cc2)CC1)c1ncco1` [Example 101, 4-[1-(4-Cyclohexyl-benzyl)-piperidin-4-yl]-1-oxazol-2-yl-butan-1-one]: 0.023 µM and 0.044 µM.
The matching figures for `CCCCS(=O)(=O)N1CCC(CCCC(=O)c2ncco2)CC1` [Example 58, 4-[1-(Butane-1-sulfonyl)-piperidin-4-yl]-1-oxazol-2-yl-butan-1-one]: 0.06 µM and 0.72 µM.
On to `O=C(CCCC1CCN(C(=O)CC2CCCC2)CC1)c1ncco1` [Example 48, 4-[1-(2-Cyclopentyl-acetyl)-piperidin-4-yl]-1-oxazol-2-yl-butan-1-one], for which the results for the IC50 on human FAAH and against rat FAAH were 0.1 µM and 0.216 µM, respectively.
The matching figures for `O=C(CCCC1CCN(C(=O)Cc2cccc(Cl)c2)CC1)c1ncco1` [Example 41, 4-{1-[2-(3-Chloro-phenyl)-acetyl]-piperidin-4-yl}-1-oxazol-2-yl-butan-1-one]: 0.64 µM and 0.712 µM.
The matching figures for `O=C(CCCC1CCN(Cc2ccc(Oc3ccccc3)nc2)CC1)c1ncco1` [Example 105, 1-Oxazol-2-yl-4-[1-(6-phenoxy-pyridin-3-ylmethyl)-piperidin-4-yl]-butan-1-one]: 0.053 µM and 0.057 µM.
The matching figures for `O=C(CCCC1CCN(Cc2cccnc2)CC1)c1ncco1` [Example 5, 1-Oxazol-2-yl-4-(1-pyridin-3-ylmethyl-piperidin-4-yl)-butan-1-one]: 1.2 µM and 3 µM.
For `O=C(CCCC1CCN(Cc2ccco2)CC1)c1ncco1` [Example 118, 4-(1-Furan-2-ylmethyl-piperidin-4-yl)-1-oxazol-2-yl-butan-1-one], the IC50 at human FAAH came to 0.354 µM; against rat FAAH, 0.935 µM.
The matching figures for `O=C(CCCC1CCN(C(=O)COCc2ccccc2)CC1)c1ncco1` [Example 34, 4-[1-(2-Benzyloxy-acetyl)-piperidin-4-yl]-1-oxazol-2-yl-butan-1-one]: 0.24 µM and 0.25 µM.
The matching figures for `CC(C)Cc1ccc(CN2CCC(CCCC(=O)c3ncco3)CC2)cc1` [Example 82, 4-[1-(4-Isobutyl-benzyl)-piperidin-4-yl]-1-oxazol-2-yl-butan-1-one]: 0.023 µM and 0.049 µM.
In the same order, the values of `Cc1ccc(CC(=O)N2CCC(CCCC(=O)c3ncco3)CC2)cc1` [Example 38, 1-Oxazol-2-yl-4-[1-(2-p-tolyl-acetyl)-piperidin-4-yl]-butan-1-one] are 0.1 µM and 0.1 µM.
With `O=C(CCCC1CCN(C(=O)Cc2ccccc2Cl)CC1)c1ncco1` [Example 42, 4-{1-[2-(2-Chloro-Phenyl)-acetyl]-piperidin-4-yl}-1-oxazol-2-yl-butan-1-one], the IC50 on human FAAH was found to be 0.43 µM; against rat FAAH, 0.8 µM.
As for `Cc1ccc(CCC(=O)N2CCC(CCCC(=O)c3ncco3)CC2)cc1` [Example 44, 1-Oxazol-2-yl-4-[1-(3-p-tolyl-propionyl)-piperidin-4-yl]-butan-1-one], the IC50 was found to be 0.04 µM at human FAAH and 0.01 µM on rat FAAH.
In the same order, the values of `O=C(CCCC1CCN(Cc2ccnc3ccccc23)CC1)c1ncco1` [Example 93, 1-Oxazol-2-yl-4-(1-quinolin-4-ylmethyl-piperidin-4-yl)-butan-1-one] are 0.07 µM and 0.923 µM.
Regarding `O=C(CCCC1CCN(Cc2ccc(F)cc2F)CC1)c1ncco1` [Example 114, 4-[1-(2,4-Difluoro-benzyl)-piperidin-4-yl]-1-oxazol-2-yl-butan-1-one], the IC50 on human FAAH amounted to 0.11 µM; against rat FAAH, 0.325 µM.
As to `CCCCCCCCCN1CCC(CCCC(=O)c2ncco2)CC1` [Example 127, 4-(1-Nonyl-Piperidin-4-yl)-1-oxazol-2-yl-butan-1-one], the IC50 was 0.008 µM on human FAAH and 0.057 µM against rat FAAH.
